From the supplement of paper PMC10331698
± gives the standard deviation of the averaged measurements.

Key:
Assay in all cases: level (log10 ratio to DMSO vehicle control); higher = higher biomarker level / cell amount than vehicle control
[1] = compound: OCC(F)(F)C(F)(F)C(F)(F)C(F)(F)C(F)(F)C(F)(F)CO [1H,1H,8H,8H-Perfluorooctane-1,8-diol] (in DMSO)
Description: (§1)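 BioMAP Diversity Plus panel of 12 human primary cell co-culture systems (3C, 4H, LPS, SAg, BT, BF4T, BE3C, CASM3C, HDF3CGF, KF3CT, MyoF, Mphg). Compounds were added 1 h before stimulation and left for 24 h (MyoF 48 h; BT 72 h for soluble read-outs or 6 d for IgG). Biomarkers were read by ELISA, cytotoxicity by SRB, PBMC viability and proliferation by Alamar Blue. Each well value was divided by the mean of 8 DMSO control wells on the same plate and log10 transformed; duplicate blinded samples were tested at 4 concentrations.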

[2] = compound: OCC(F)(F)C(F)(F)C(F)(F)C(F)F [1H,1H,5H-Perfluoropentanol] (in DMSO)
Description: as §1

[3] = compound: C=C(C)C(=O)OCCC(F)(F)C(F)(F)C(F)(F)C(F)(F)C(F)(F)C(F)(F)C(F)(F)C(F)(F)F [8:2 Fluorotelomer methacrylate] (in DMSO)
Description: as §1

[4] = compound: O=S(=O)(O)C(F)(F)C(F)(F)C(F)(F)C(F)(F)C(F)(F)C(F)(F)C(F)(F)F [Perfluoroheptanesulfonic acid] (in DMSO)
Description: as §1

[5] = compound: O=C(O)C(F)(F)C(F)(F)C(F)(F)OC(F)(F)F [Perfluoro(4-methoxybutanoic) acid] (in DMSO)
Description: as §1

[6] = compound: C[C@@H]1C[C@H]2[C@@H]3CCC4=CC(=O)C=C[C@]4(C)[C@@]3(F)[C@@H](O)C[C@]2(C)[C@@]1(O)C(=O)COP(=O)(O)O [Dexamethasone sodium phosphate] (in DMSO)
Description: as §1

Test System: HDF3CGF:TIMP-1
- level (log10) ([1]; 6700 nM): -0.002 ± 0.0071
- level (log10) ([1]; 20000 nM): -0.003 ± 0.0085
- level (log10) ([1]; 60000 nM): 0.019 ± 0.025
- level (log10) ([2]; 6700 nM): -0.012 ± 0.031
- level (log10) ([2]; 20000 nM): -0.0155 ± 0.025
- level (log10) ([2]; 60000 nM): 0.006 ± 0.027
- level (log10) ([3]; 6700 nM): -0.0115 ± 0.036
- level (log10) ([3]; 20000 nM): -0.0375 ± 0.074
- level (log10) ([4]; 1500 nM): -0.004 ± 0.013
- level (log10) ([4]; 4400 nM): -0.001 ± 0.071
- level (log10) ([4]; 13000 nM): -0.002 ± 0.045
- level (log10) ([4]; 40000 nM): 0.012 ± 0.1
- level (log10) ([5]; 6700 nM): -0.0005 ± 0.035
- level (log10) ([5]; 20000 nM): 0.0105 ± 0.067
- level (log10) ([5]; 60000 nM): 0.0195 ± 0.042
- level (log10) ([6]; 1500 nM): -0.0755 ± 0.04
- level (log10) ([6]; 4400 nM): -0.0735 ± 0.053
- level (log10) ([6]; 13000 nM): -0.112 ± 0.07
- level (log10) ([6]; 40000 nM): -0.175 ± 0.081

Test System: HDF3CGF:TIMP-2
- level (log10) ([1]; 6700 nM): 0.003 ± 0.0014
- level (log10) ([1]; 20000 nM): 0.0255 ± 0.0035
- level (log10) ([1]; 60000 nM): 0.0145 ± 0.00071
- level (log10) ([2]; 6700 nM): -0.0525 ± 0.086
- level (log10) ([2]; 20000 nM): -0.0265 ± 0.067
- level (log10) ([2]; 60000 nM): -0.0175 ± 0.087
- level (log10) ([3]; 6700 nM): -0.001 ± 0.013
- level (log10) ([3]; 20000 nM): -0.0395 ± 0.012
- level (log10) ([4]; 1500 nM): -0.0185 ± 0.0064
- level (log10) ([4]; 4400 nM): -0.0395 ± 0.029
- level (log10) ([4]; 13000 nM): -0.0115 ± 0.028
- level (log10) ([4]; 40000 nM): -0.045 ± 0.0014
- level (log10) ([5]; 6700 nM): 0.019 ± 0.025
- level (log10) ([5]; 20000 nM): 0.029 ± 0.055
- level (log10) ([5]; 60000 nM): 0.005 ± 0.057
- level (log10) ([6]; 1500 nM): 0.0475 ± 0.028
- level (log10) ([6]; 4400 nM): 0.062 ± 0.081
- level (log10) ([6]; 13000 nM): 0.061 ± 0.065
- level (log10) ([6]; 40000 nM): 0.0585 ± 0.0021

Test System: KF3CT:CCL2/MCP-1
- level (log10) ([1]; 6700 nM): -0.017 ± 0.0099
- level (log10) ([1]; 20000 nM): -0.0235 ± 0.03
- level (log10) ([1]; 60000 nM): 0.0005 ± 0.081
- level (log10) ([2]; 6700 nM): 0.0055 ± 0.026
- level (log10) ([2]; 20000 nM): -0.0495 ± 0.087
- level (log10) ([2]; 60000 nM): 0.007 ± 0.13
- level (log10) ([3]; 6700 nM): -0.0235 ± 0.00071
- level (log10) ([3]; 20000 nM): -0.008 ± 0.033
- level (log10) ([4]; 1500 nM): -0.0115 ± 0.022
- level (log10) ([4]; 4400 nM): -0.011 ± 0.011
- level (log10) ([4]; 13000 nM): 0.0015 ± 0.0021
- level (log10) ([4]; 40000 nM): 0.0125 ± 0.022
- level (log10) ([5]; 6700 nM): -0.006 ± 0.011
- level (log10) ([5]; 20000 nM): 0.0105 ± 0.0021
- level (log10) ([5]; 60000 nM): 0.0375 ± 0.07
- level (log10) ([6]; 1500 nM): -0.0015 ± 0.08
- level (log10) ([6]; 4400 nM): -0.0565 ± 0.049
- level (log10) ([6]; 13000 nM): -0.0105 ± 0.0035
- level (log10) ([6]; 40000 nM): -0.033 ± 0.016

Test System: KF3CT:CD54/ICAM-1
- level (log10) ([1]; 6700 nM): -0.009 ± 0.0042
- level (log10) ([1]; 20000 nM): 0.0015 ± 0.0092
- level (log10) ([1]; 60000 nM): -0.01 ± 0.018
- level (log10) ([2]; 6700 nM): -0.002 ± 0.0071
- level (log10) ([2]; 20000 nM): -0.003 ± 0.023
- level (log10) ([2]; 60000 nM): 0.004
- level (log10) ([3]; 6700 nM): -0.017 ± 0.013
- level (log10) ([3]; 20000 nM): 0.004 ± 0.021
- level (log10) ([4]; 1500 nM): -0.013 ± 0.0085
- level (log10) ([4]; 4400 nM): 0.001 ± 0.0099
- level (log10) ([4]; 13000 nM): -0.0085 ± 0.0078
- level (log10) ([4]; 40000 nM): 0.0005 ± 0.0078
- level (log10) ([5]; 6700 nM): -0.005 ± 0.024
- level (log10) ([5]; 20000 nM): -0.017
- level (log10) ([5]; 60000 nM): -0.002 ± 0.013
- level (log10) ([6]; 1500 nM): -0.0125 ± 0.0078
- level (log10) ([6]; 4400 nM): 0.01 ± 0.018
- level (log10) ([6]; 13000 nM): -0.012 ± 0.011
- level (log10) ([6]; 40000 nM): -0.003 ± 0.013

Test System: KF3CT:CXCL8/IL-8
- level (log10) ([1]; 6700 nM): -0.0015 ± 0.019
- level (log10) ([1]; 20000 nM): -0.0215 ± 0.023
- level (log10) ([1]; 60000 nM): 0
- level (log10) ([2]; 6700 nM): 0.0155 ± 0.016
- level (log10) ([2]; 20000 nM): 0.0205 ± 0.021
- level (log10) ([2]; 60000 nM): 0.0415 ± 0.049
- level (log10) ([3]; 6700 nM): -0.013 ± 0.0071
- level (log10) ([3]; 20000 nM): -0.0275 ± 0.015
- level (log10) ([4]; 1500 nM): 0.001 ± 0.014
- level (log10) ([4]; 4400 nM): -0.0095 ± 0.03
- level (log10) ([4]; 13000 nM): 0 ± 0.03
- level (log10) ([4]; 40000 nM): 0.0065 ± 0.022
- level (log10) ([5]; 6700 nM): 0.006 ± 0.017
- level (log10) ([5]; 20000 nM): 0.012 ± 0.0085
- level (log10) ([5]; 60000 nM): 0.014 ± 0.0099
- level (log10) ([6]; 1500 nM): -0.044 ± 0.05
- level (log10) ([6]; 4400 nM): -0.05 ± 0.02
- level (log10) ([6]; 13000 nM): -0.045 ± 0.021
- level (log10) ([6]; 40000 nM): -0.045 ± 0.0028

Test System: KF3CT:CXCL9/MIG
- level (log10) ([1]; 6700 nM): 0.007 ± 0.011
- level (log10) ([1]; 20000 nM): 0.0025 ± 0.00071
- level (log10) ([1]; 60000 nM): 0.0105 ± 0.005
- level (log10) ([2]; 6700 nM): -0.009 ± 0.0085
- level (log10) ([2]; 20000 nM): -0.006 ± 0.017
- level (log10) ([2]; 60000 nM): 0.008 ± 0.023
- level (log10) ([3]; 6700 nM): -0.0035 ± 0.0092
- level (log10) ([3]; 20000 nM): 0.004 ± 0.0014
- level (log10) ([4]; 1500 nM): -0.005 ± 0.0071
- level (log10) ([4]; 4400 nM): -0.006 ± 0.0099
- level (log10) ([4]; 13000 nM): -0.005 ± 0.0028
- level (log10) ([4]; 40000 nM): 0.014 ± 0.0042
- level (log10) ([5]; 6700 nM): 0.0195 ± 0.0021
- level (log10) ([5]; 20000 nM): 0.0075 ± 0.0092
- level (log10) ([5]; 60000 nM): 0.016 ± 0.018
- level (log10) ([6]; 1500 nM): -0.008 ± 0.024
- level (log10) ([6]; 4400 nM): 0.002 ± 0.0014
- level (log10) ([6]; 13000 nM): -0.0075 ± 0.0021
- level (log10) ([6]; 40000 nM): -0.01 ± 0.0014

Test System: KF3CT:CXCL10/IP-10
- level (log10) ([1]; 6700 nM): -0.003 ± 0.0028
- level (log10) ([1]; 20000 nM): -0.001 ± 0.014
- level (log10) ([1]; 60000 nM): -0.009 ± 0.0085
- level (log10) ([2]; 6700 nM): -0.0125 ± 0.033
- level (log10) ([2]; 20000 nM): 0.0025 ± 0.00071
- level (log10) ([2]; 60000 nM): 0.0365 ± 0.00071
- level (log10) ([3]; 6700 nM): -0.0125 ± 0.0035
- level (log10) ([3]; 20000 nM): -0.011 ± 0.0028
- level (log10) ([4]; 1500 nM): 0.006 ± 0.0014
- level (log10) ([4]; 4400 nM): -0.0045 ± 0.00071
- level (log10) ([4]; 13000 nM): -0.005 ± 0.0042
- level (log10) ([4]; 40000 nM): -0.014 ± 0.0028
- level (log10) ([5]; 6700 nM): 0.002 ± 0.011
- level (log10) ([5]; 20000 nM): -0.0025 ± 0.0035
- level (log10) ([5]; 60000 nM): 0.006 ± 0.0099
- level (log10) ([6]; 1500 nM): 0.0015 ± 0.0021
- level (log10) ([6]; 4400 nM): 0.01 ± 0.0071
- level (log10) ([6]; 13000 nM): 0.005
- level (log10) ([6]; 40000 nM): 0.0055 ± 0.0064
